Assay results from patent US6649656B1, “Anthranilic acid derivatives” (Teijin Limited, priority 1998, dated 2003).
Read-outs that look alike come from different tables or passages of the source.

What was measured:
Assay type in all cases: cell-based
[1] = system: IgE antibody production from human lymphocyte; test: Human in vitro IgE antibody production suppressing activity (lymphocyte culture with IL-4 + IL-10 + anti-CD40 antibody, sandwich ELISA); conditions: for IC50: IgE antibody production; for inhibition at 1 µM: test drug concentration 1 μM, IL-4 + IL-10 + anti-CD40 antibody, read-out: IgE production suppressing ratio (%)
Description: (§1) The concentrations of IgE and IgG antibodies were measured by the following method according to the method described in the Journal of Immunology vol.146, pp.1836-1842, 1991 and the Journal of Immunology vol. 147, pp.8-13, 1991.
(§2) Concretely, lymphocyte was separated from the peripheral venous blood of healthy person by density gradient centrifugation. The obtained lymphocyte was washed, suspended in a culture liquid (RPMI-1640 (product of Gibco Co.)+10% heat-inactivated FCS (product of Whittaker Co.)+100 μg/ml streptomycin+100 U/ml penicillin G+2 mM L-glutamine) and cultured for a week in the presence of interleukin 4 (IL-4, product of GENZYME Co.) (0.1 μg/ml), anti-CD40 antibody (antiCD40Aab, product of BIOSOURCE Co.), clone B-B20) (2 μg/ml) and interleukin 10 (IL-10, product of GENZYME Co.) (0.2 μg/ml) in the presence or absence of the compounds of the present invention described in the Tables 10 to 15 at various concentrations as test drugs.
(§3) The culture liquid was added to the culture system, the culture was continued for additional one week, and the concentrations of IgE and IgG antibodies in the supernatant were measured by sandwich ELISA method.
(§4) The measurement by ELISA method was carried out according to the known ELISA method by using rabbit anti-human IgE(ε) antibody (product of ICN Co.) as the primary antibody and biotin.anti-human IgE monoclonal antibody (G7-26, product of PharMingen Co.) as the secondary antibody for the measurement of IgE antibody concentration and anti-human IgG monoclonal antibody (G18-145, product of PharMingen Co.) as the primary antibody and biotin-donkey anti-human IgG antibody (H+L) (product of Jackson Co.) as the secondary antibody for the measurement of IgG antibody concentration, and using avidin-biotin-hourse radish peroxidase (ABC kit, product of Vector Lab.) as the enzyme and TMB (3,3′,5,5′-tetramethylbenzidine) microwell peroxidase substrate system (product of Kirkegaard & Perry Laboratories Inc.) as the substrate.
(§5) The value of IC50 and the suppressing ratio (%) at the test drug concentration of 1 μM were calculated based on the concentration attained in the absence of the compound of the present invention (reference: Ueshimna, et al. American Academy of Allergy & Immunology, 1995 Annual Meeting, Program No.818).

L929 cells = test: Measurement of cytotoxicity using mouse tumor cell L929 (neutral red assay)
Description: [Procedure] The cytotoxicity action on tumor cell was measured by neutral red assay (the method described in the Journal of Tissue Culture Methodology vol.9, p.7 (1984) and Toxicology Letters, vol.24, p.119 (1985)). Concretely, L929 cells (5×10^4 cells/ml, 10% FCS/RPMI) were added to the wells of a 96 well ELISA plate at a rate of 100 μL each and cultured for a night, and the testing compounds of respective measurement concentrations were dissolved in DMSO solution and added to the above cells. The culture was continued for 3 days, and 2.0 μL of Neutral Red was added to attain the final concentration of 0.01%. The mixture was incubated for 1 hour at 37° C., the supernatant of the cell culture product was removed and the residue was washed twice with 200 μL of PBS to remove excess Neutral Red. Thereafter, the dye taken into the cell was extracted by adding 100 μL of 50% ethanol-1% acetic acid aqueous solution and the amount of the dye was determined by measuring the absorbance at 490 nm. The cytotoxicity was determined at each concentration of the test compound taking the cytotoxicity free from the drug as 100%. […] Two sets of measurement were performed for each test under the same condition and the average value was used as the test result.

[2] = system: IgG antibody production from human lymphocyte; test: Human in vitro IgG antibody production (same lymphocyte culture, sandwich ELISA); conditions: for inhibition at 1 µM: Homo sapiens, Lymphocyte, test drug concentration 1 μM, IL-4 + IL-10 + anti-CD40 antibody, read-out: IgG production suppressing ratio (%); for IC50: IgG antibody production
Description: as §1, §2, §3, §4, §5

[3] = L929, 72 h, read-out: LD50 (μM)
[4] = 72 h, cytotoxic activity against L929, neutral red assay, 3 days culture, read-out: LD50 (the source's name)

SMILES	IC50 [1] [µM]	inhibition at 1 µM [1] [%]	CC50 (L929 cells; [3]) [µM]	inhibition at 1 µM [2] [%]	IC50 [2] [µM]	CC50 (L929 cells; [4]) [µM]
CC(C)(C)OC(=O)NC1CCC(Oc2ccc(Oc3ccc(CC(=O)Nc4ccccc4C(=O)O)cc3)cc2)CC1 (centres unmarked) [compound 133]	0.042	100	0.33	98.2	0.228	–
O=C(Cc1ccc(Oc2ccc(OC3CCC(NC(=O)Nc4ccc(Cl)c(Cl)c4)CC3)cc2)cc1)Nc1ccccc1C(=O)O (centres unmarked) [compound 142]	0.034	100	–	93.7	0.141	0.54
O=C(Cc1ccc(Oc2ccc3cc(O[C@H]4CC[C@@H](NC(=O)c5cc(Cl)cnc5Cl)CC4)ccc3c2)cc1)Nc1ccccc1C(=O)O [compound 351]	< 0.01	100	–	71.7	0.662	0.31
CCCCC(=O)N[C@H]1CC[C@@H](Oc2ccc3cc(Oc4ccc(C(=O)Nc5ccccc5C(=O)O)cc4)ccc3c2)CC1 [compound 370]	0.027	94.7	6.8	-45.5	> 1	–
